Experimental data taken from the CheMixHub viscosity set.

Test: xn = mol fraction of the nth substance listed

CN1CCC[C@H]1c1cccnc1 + CC(=O)O
viscosity [mPa·s], 101 kPa
Settings | 298.15 K | 323.15 K
x1 = 0.1169 | 23.04 | 7.777
x1 = 0.1985 | 74.98 | 18.12
x1 = 0.2129 | 93.46 | 20.8
x1 = 0.2369 | 109.9 | 21.63
x1 = 0.2489 | 111.9 | 22.09
x1 = 0.2602 | 110.9 | 21.72
x1 = 0.2952 | 94.15 | 19.47
x1 = 0.3062 | 86.56 | 18.65
x1 = 0.3711 | 56.31 | 13.21
x1 = 0.47 | 24.1 | 7.709
x1 = 0.5888 | 15.2 | 5.208
x1 = 0.7306 | 8.751 | 3.61
x1 = 0.8435 | 7.072 | 3.085

NC=O + CC(=O)O
viscosity [mPa·s]
Settings | 298.15 K | 303.15 K | 308.15 K | 313.15 K
101 kPa, x1 = 0.109 | 2.001 | – | – | 1.462
101 kPa, x1 = 0.2105 | 2.855 | – | – | 2.029
101 kPa, x1 = 0.3058 | 3.481 | – | – | 2.361
101 kPa, x1 = 0.4011 | 3.864 | – | – | 2.589
101 kPa, x1 = 0.5018 | 4.217 | – | – | 2.791
101 kPa, x1 = 0.5944 | 4.341 | – | – | 2.904
101 kPa, x1 = 0.7026 | 4.316 | – | – | 2.903
101 kPa, x1 = 0.7961 | 4.146 | – | – | 2.899
101 kPa, x1 = 0.9038 | 3.824 | – | – | 2.589
101.33 kPa, x1 = 0.0782 | 1.54 | 1.39 | 1.28 | 1.19
101.33 kPa, x1 = 0.1552 | 2.07 | 1.84 | 1.68 | 1.54
101.33 kPa, x1 = 0.2319 | 2.63 | 2.3 | 2.09 | 1.89
101.33 kPa, x1 = 0.3049 | 3.11 | 2.71 | 2.43 | 2.19
101.33 kPa, x1 = 0.3832 | 3.54 | 3.06 | 2.73 | 2.45
101.33 kPa, x1 = 0.4595 | 3.85 | 3.32 | 2.95 | 2.65
101.33 kPa, x1 = 0.5395 | 4.04 | 3.52 | 3.08 | 2.81
101.33 kPa, x1 = 0.6155 | 4.02 | 3.5 | 3.1 | 2.77
101.33 kPa, x1 = 0.6939 | 3.97 | 3.49 | 3.08 | 2.75
101.33 kPa, x1 = 0.7683 | 3.83 | 3.4 | 2.97 | 2.67
101.33 kPa, x1 = 0.8477 | 3.57 | 3.1 | 2.79 | 2.53
101.33 kPa, x1 = 0.9228 | 3.36 | 2.94 | 2.65 | 2.4

CC(=O)[O-].[Na+] + CC(=O)[O-].CC[n+]1ccn(C)c1
Settings | viscosity [mPa·s]
298.15 K, 101 kPa, x1 = 0.0501 | 160.5

CN1CCC[C@H]1c1cccnc1 + CC(=O)c1ccccc1
viscosity [mPa·s], 101 kPa
Settings | x1 = 0.1332 | x1 = 0.2426 | x1 = 0.3782 | x1 = 0.4934 | x1 = 0.613 | x1 = 0.7431 | x1 = 0.8402
298.15 K | 1.872 | 2.198 | 2.537 | 2.947 | 3.238 | 3.627 | 3.736
323.15 K | 1.162 | 1.288 | 1.453 | 1.551 | 1.743 | 1.912 | 1.962

NC=O + CC(C)(C)O
308 K, 101 kPa
Settings | viscosity [mPa·s]
x1 = 0.1112 | 2.784
x1 = 0.2296 | 3.129
x1 = 0.3735 | 3.402
x1 = 0.5054 | 3.512
x1 = 0.6138 | 3.505
x1 = 0.7045 | 3.383
x1 = 0.7815 | 3.224
x1 = 0.8476 | 3.024
x1 = 0.9051 | 2.817
